The results in this text go back to patent US9023789B2, “Amylin analogs and pharmaceutical compositions thereof” (Novo Nordisk A/S, priority 2012, dated 2015).

The structures appear in SMILES notation. Numbered stars: 1 amine (or outer) side, 2 acyl side, 3 side chain; on linkers, the order of the positions; unused ones are H or OH. Bridge positions count the residues as written; N and C are the ends. Side chains are listed from the residue outwards. Peptide text beside a SMILES is read from it. * marks the point of attachment. C20 diacid = O=C(O)CCCCCCCCCCCCCCCCCCC(=O)*; γGlu = O=C(O)[C@H](CCC(=O)[*:2])N[*:1]; AEEA = NCCOCCOCC(=O)O

Broadly, the EC50 is the midpoint of the concentration-response curve. As usually defined, the IC50 is the midpoint of a concentration-inhibition curve.

Assay [1] deals with T1, human calcitonin (a) receptor in BHK570 cells (Homo sapiens, UniProt P30988).
T1 construct: expressed in transfected cells
T1 sequence (P30988 25-474): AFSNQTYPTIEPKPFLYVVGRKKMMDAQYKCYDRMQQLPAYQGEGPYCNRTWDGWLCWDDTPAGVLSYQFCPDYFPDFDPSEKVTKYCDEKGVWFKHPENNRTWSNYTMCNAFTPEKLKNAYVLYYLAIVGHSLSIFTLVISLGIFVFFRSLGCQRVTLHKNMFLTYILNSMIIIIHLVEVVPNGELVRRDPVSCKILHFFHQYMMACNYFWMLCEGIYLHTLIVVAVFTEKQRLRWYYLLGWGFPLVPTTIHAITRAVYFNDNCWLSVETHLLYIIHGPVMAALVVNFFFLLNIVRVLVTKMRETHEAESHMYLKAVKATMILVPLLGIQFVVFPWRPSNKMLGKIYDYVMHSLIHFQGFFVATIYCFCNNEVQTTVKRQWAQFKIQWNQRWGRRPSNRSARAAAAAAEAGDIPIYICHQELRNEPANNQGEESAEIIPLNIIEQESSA
The assay is described as follows: ASSAY (II)a functional assay, human calcitonin receptor (CRE luciferase). The format is cell-based. The conditions noted are these: read-out: hCTR funct. EC50. Summed up: (§1)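 BHK cells stably carrying a CRE-luciferase reporter plus calcitonin receptor, or calcitonin receptor with RAMP-3 for the amylin 3(a) receptor, were seeded and kept overnight at 37° C. Compounds were added in assay medium with 10% FBS and 10 mM Hepes, pH 7.4, for 3 hours at 37° C, then luminescence was counted.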

Assay [2] concerns the target T2, human calcitonin receptor (Homo sapiens, UniProt P30988).
T2 construct: expressed in transfected cells
T2 sequence (P30988 25-474): T1 sequence (P30988 25-474)
The assay is described as follows: ASSAY (VII) binding to the human calcitonin receptor (SPA, 125I-Calcitonin).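 Note: cell membranes (35 ng/µL) combined with SPA beads in 40 µL of pH 7.4 Hepes buffer, 384-well format, signal counted on a TopCounter instrument.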 The conditions noted are these: read-out: hCTR bind IC50.

In assay [3] the target is T3, human amylin 3(a) receptor (human calcitonin receptor + RAMP-3) in BHK570 cells (Homo sapiens, UniProt O60896+P30988).
T3 construct: expressed in transfected cells
The assay is described as follows: ASSAY (II)a functional assay, human amylin receptor (CRE luciferase). The format is cell-based. The settings on record: for EC50: human amylin receptor functional potency, assay (II), read-out: hAmylin-R funct. EC50. Summed up: as §1

[4] abbreviates: hCTR funct. EC50 divided by hAmylin-R funct. EC50.
Where [5] appears, read: hCTR funct. EC50 over hAmylin-R funct. EC50.
The mark [6] stands for this setting: human functional selectivity: hCTR funct. EC50 / hAmylin-R funct. EC50.

T3 sequence (O60896 24-148, one chain of several): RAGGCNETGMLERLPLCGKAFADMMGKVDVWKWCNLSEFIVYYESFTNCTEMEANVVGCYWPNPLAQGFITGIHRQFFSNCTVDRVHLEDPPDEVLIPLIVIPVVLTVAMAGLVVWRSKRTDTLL

Regarding `CC[C@H](C)[C@H](NC(=O)[C@H](C)NC(=O)CNC(=O)[C@H](Cc1ccccc1)NC(=O)[C@H](CC(N)=O)NC(=O)[C@@H]1CCCN1C(=O)[C@H](CO)NC(=O)[C@H](CO)NC(=O)[C@H](Cc1c[nH]cn1)NC(=O)[C@H](CCCNC(=N)N)NC(=O)[C@H](CC(C)C)NC(=O)[C@H](Cc1ccccc1)NC(=O)[C@H](CCCNC(=N)N)NC(=O)[C@H](C)NC(=O)[C@H](CC(C)C)NC(=O)[C@H](CCCNC(=N)N)NC(=O)[C@H](CCC(N)=O)NC(=O)[C@@H](NC(=O)[C@H](C)NC(=O)[C@@H]1CSSC[C@H](NC(=O)[C@@H](N)CCCCNC(=O)COCCOCCNC(=O)CC[C@H](NC(=O)CCCCCCCCCCCCCCCCCCC(=O)O)C(=O)O)C(=O)N[C@@H](CC(N)=O)C(=O)N[C@@H]([C@@H](C)O)C(=O)N[C@@H](C)C(=O)N[C@@H]([C@@H](C)O)C(=O)N1)[C@@H](C)O)C(=O)N1CCC[C@H]1C(=O)N[C@@H](CO)C(=O)N[C@@H](CO)C(=O)N[C@H](C(=O)N1CCC[C@H]1C(=O)N[C@H](C(=O)NCC(=O)N[C@@H](CO)C(=O)N[C@@H](CC(N)=O)C(=O)N[C@H](C(=O)N[C@@H](Cc1ccc(O)cc1)C(N)=O)[C@@H](C)O)C(C)C)[C@@H](C)O` [Example 64] (H-K([AEEA-γGlu-C20 diacid])CNTATCATQRLARFLRHSSPNFGAIPSSTPVGSNTY-NH2; disulfide 2-7; N-terminus assumed), the EC50 in assay [1] is 22.9 nM; in assay [3], 0.378 nM. Besides, the IC50 in assay [2] was 56 nM. Further, the “Ratio hCT/hAmylin funct.” value in assay [3] (setting [4]), in assay [3] (setting [5]) and in assay [3] (setting [6]) was 60.7 throughout.
Take `CC[C@H](C)[C@H](NC(=O)[C@H](C)NC(=O)CNC(=O)[C@H](Cc1ccccc1)NC(=O)[C@H](CC(N)=O)NC(=O)[C@@H]1CCCN1C(=O)[C@H](CO)NC(=O)[C@H](CO)NC(=O)[C@H](Cc1c[nH]cn1)NC(=O)[C@H](CCCNC(=N)N)NC(=O)[C@H](CC(C)C)NC(=O)[C@H](Cc1ccccc1)NC(=O)[C@H](CC(N)=O)NC(=O)[C@H](C)NC(=O)[C@H](CC(C)C)NC(=O)[C@H](CCCNC(=N)N)NC(=O)[C@H](CCC(N)=O)NC(=O)[C@@H](NC(=O)[C@H](C)NC(=O)[C@@H]1CSSC[C@H](NC(=O)[C@@H](N)CCCCNC(=O)COCCOCCNC(=O)CC[C@H](NC(=O)CCCCCCCCCCCCCCCCCCC(=O)O)C(=O)O)C(=O)N[C@@H](CC(N)=O)C(=O)N[C@@H]([C@@H](C)O)C(=O)N[C@@H](C)C(=O)N[C@@H]([C@@H](C)O)C(=O)N1)[C@@H](C)O)C(=O)N1CCC[C@H]1C(=O)N[C@@H](CO)C(=O)N[C@@H](CO)C(=O)N[C@H](C(=O)N1CCC[C@H]1C(=O)N[C@H](C(=O)NCC(=O)N[C@@H](CO)C(=O)N[C@@H](Cc1c[nH]cn1)C(=O)N[C@H](C(=O)N[C@@H](Cc1ccc(O)cc1)C(N)=O)[C@@H](C)O)C(C)C)[C@@H](C)O` [Example 57] (H-K([AEEA-γGlu-C20 diacid])CNTATCATQRLANFLRHSSPNFGAIPSSTPVGSHTY-NH2; disulfide 2-7; N-terminus assumed): the EC50 in assay [1] came to 3.12 nM; in assay [3] it was 0.089 nM. Besides, the IC50 in assay [2] was 15.3 nM. Further, the “Ratio hCT/hAmylin funct.” value in assay [3] (setting [4]), in assay [3] (setting [5]) and in assay [3] (setting [6]) was 35.0 in each case.
For the compound `CC[C@H](C)[C@H](NC(=O)[C@H](C)NC(=O)CNC(=O)[C@H](Cc1ccccc1)NC(=O)[C@H](CC(N)=O)NC(=O)[C@@H]1CCCN1C(=O)[C@H](CO)NC(=O)[C@H](CO)NC(=O)[C@H](Cc1c[nH]cn1)NC(=O)[C@H](CCCNC(=N)N)NC(=O)[C@H](CC(C)C)NC(=O)[C@H](Cc1ccccc1)NC(=O)[C@H](CCC(=O)O)NC(=O)[C@H](C)NC(=O)[C@H](CC(C)C)NC(=O)[C@H](CCCNC(=N)N)NC(=O)[C@H](CCC(N)=O)NC(=O)[C@@H](NC(=O)[C@H](C)NC(=O)[C@@H]1CSSC[C@H](NC(=O)[C@@H](N)CCCCNC(=O)CC[C@H](NC(=O)CC[C@H](NC(=O)CCCCCCCCCCCCCCCCCCC(=O)O)C(=O)O)C(=O)O)C(=O)N[C@@H](CC(N)=O)C(=O)N[C@@H]([C@@H](C)O)C(=O)N[C@@H](C)C(=O)N[C@@H]([C@@H](C)O)C(=O)N1)[C@@H](C)O)C(=O)N1CCC[C@H]1C(=O)N[C@@H](CO)C(=O)N[C@@H](CO)C(=O)N[C@H](C(=O)N[C@@H](CC(N)=O)C(=O)N[C@H](C(=O)NCC(=O)N[C@@H](CCCNC(=N)N)C(=O)N[C@@H](CCC(=O)O)C(=O)N[C@H](C(=O)N[C@@H](Cc1ccc(O)cc1)C(N)=O)[C@@H](C)O)C(C)C)[C@@H](C)O` [Example 105] (H-K([γGlu-γGlu-C20 diacid])CNTATCATQRLAEFLRHSSPNFGAIPSSTNVGRETY-NH2; disulfide 2-7; N-terminus assumed), the EC50 was determined as 7.43 nM in assay [1] and 0.703 nM in assay [3]. In assay [2], the IC50 turned out to be 14.1 nM. The “Ratio hCT/hAmylin funct.” value in assay [3] (setting [4]), in assay [3] (setting [5]) and in assay [3] (setting [6]) was 10.6 throughout.
Regarding `CC[C@H](C)[C@H](NC(=O)[C@H](C)NC(=O)CNC(=O)[C@H](Cc1ccccc1)NC(=O)[C@H](CC(N)=O)NC(=O)[C@@H]1CCCN1C(=O)[C@H](CO)NC(=O)[C@H](CO)NC(=O)[C@H](Cc1c[nH]cn1)NC(=O)[C@H](CCCNC(=N)N)NC(=O)[C@H](CC(C)C)NC(=O)[C@H](Cc1ccccc1)NC(=O)[C@H](CC(=O)O)NC(=O)[C@H](C)NC(=O)[C@H](CC(C)C)NC(=O)[C@H](CCCNC(=N)N)NC(=O)[C@H](CCC(N)=O)NC(=O)[C@@H](NC(=O)[C@H](C)NC(=O)[C@@H]1CSSC[C@H](NC(=O)[C@@H](N)CCCCNC(=O)CC[C@H](NC(=O)CCCCCCCCCCCCCCCCCCC(=O)O)C(=O)O)C(=O)N[C@@H](CC(N)=O)C(=O)N[C@@H]([C@@H](C)O)C(=O)N[C@@H](C)C(=O)N[C@@H]([C@@H](C)O)C(=O)N1)[C@@H](C)O)C(=O)N1CCC[C@H]1C(=O)N[C@@H](CO)C(=O)N[C@@H](CO)C(=O)N[C@H](C(=O)N[C@@H](CC(N)=O)C(=O)N[C@H](C(=O)NCC(=O)N1CCC[C@H]1C(=O)N[C@@H](CCC(=O)O)C(=O)N[C@H](C(=O)N[C@@H](Cc1ccc(O)cc1)C(N)=O)[C@@H](C)O)C(C)C)[C@@H](C)O` [Example 123] (H-K([γGlu-C20 diacid])CNTATCATQRLADFLRHSSPNFGAIPSSTNVGPETY-NH2; disulfide 2-7; N-terminus assumed), the figures for the EC50 in assay [1] and in assay [3] were 1.11 nM and 0.288 nM, respectively. In assay [2], the IC50 amounted to 3.27 nM. In addition, the “Ratio hCT/hAmylin funct.” value in assay [3] (hCTR funct. EC50 / hAmylin-R funct. EC50), in assay [3] (setting [4]), in assay [3] (setting [5]) and in assay [3] (setting [6]) was 3.9 each time.
With `CC[C@H](C)[C@H](NC(=O)[C@H](C)NC(=O)CNC(=O)[C@H](Cc1ccccc1)NC(=O)[C@H](CC(N)=O)NC(=O)[C@@H]1CCCN1C(=O)[C@H](CO)NC(=O)[C@H](CO)NC(=O)[C@H](Cc1c[nH]cn1)NC(=O)[C@H](CCCNC(=N)N)NC(=O)[C@H](CC(C)C)NC(=O)[C@H](Cc1ccccc1)NC(=O)[C@H](CC(=O)O)NC(=O)[C@H](C)NC(=O)[C@H](CC(C)C)NC(=O)[C@H](CCCNC(=N)N)NC(=O)[C@H](CCC(N)=O)NC(=O)[C@@H](NC(=O)[C@H](C)NC(=O)[C@@H]1CSSC[C@H](NC(=O)[C@@H](N)CCCCNC(=O)CC[C@H](NC(=O)CCCCCCCCCCCCCCCCCCC(=O)O)C(=O)O)C(=O)N[C@@H](CC(N)=O)C(=O)N[C@@H]([C@@H](C)O)C(=O)N[C@@H](C)C(=O)N[C@@H]([C@@H](C)O)C(=O)N1)[C@@H](C)O)C(=O)N1CCC[C@H]1C(=O)N[C@@H](CO)C(=O)N[C@@H](CO)C(=O)N[C@H](C(=O)N[C@@H](CC(N)=O)C(=O)N[C@H](C(=O)NCC(=O)N1CCC[C@H]1C(=O)N[C@@H](CCCNC(=N)N)C(=O)N[C@H](C(=O)N[C@@H](Cc1ccc(O)cc1)C(N)=O)[C@@H](C)O)C(C)C)[C@@H](C)O` [Example 129] (H-K([γGlu-C20 diacid])CNTATCATQRLADFLRHSSPNFGAIPSSTNVGPRTY-NH2; disulfide 2-7 (inferred); N-terminus assumed), the EC50 in assay [1] was 3.64 nM; in assay [3] it was 0.146 nM. Besides, the half-maximal inhibitory concentration (IC50) in assay [2] stood at 42.5 nM. In addition, the “Ratio hCT/hAmylin funct.” value in assay [3] (setting [4]), in assay [3] (setting [5]) and in assay [3] (setting [6]) was 24.9 throughout.
